Laboratory results taken from paper PMC7108740, “Exploring the molecular structures that confer ligand selectivity for galanin type II and III receptors” (PLoS ONE, 2020).

Target: T1, GALR3 septuple (Homo sapiens, UniProt O60755, A190V/A191F/C272L/G192S/L100F/Y103F/Y107H)
T1 construct: expressed in transfected cells; host or cells: HEK293 cells stably expressing pGlosensor-22F cAMP plasmid
T1 sequence (O60755 1-368 L100F/Y103F/Y107H/A190V/A191F/G192S/C272L): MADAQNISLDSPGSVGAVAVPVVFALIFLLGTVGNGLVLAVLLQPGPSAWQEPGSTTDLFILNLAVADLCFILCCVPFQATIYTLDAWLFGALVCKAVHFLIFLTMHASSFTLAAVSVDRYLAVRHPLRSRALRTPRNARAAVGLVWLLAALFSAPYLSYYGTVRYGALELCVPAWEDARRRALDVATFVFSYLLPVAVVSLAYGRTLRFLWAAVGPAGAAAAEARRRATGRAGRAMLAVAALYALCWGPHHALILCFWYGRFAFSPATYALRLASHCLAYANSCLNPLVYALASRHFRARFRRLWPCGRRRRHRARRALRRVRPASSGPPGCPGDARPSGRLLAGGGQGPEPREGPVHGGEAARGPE
Assay: SRE-luc luciferase assay, GALR3 septuple mutant
Type: cell-based
Settings: SRE-luc in HEK293 Gqi cells, ligand 6 h, mean ± SE, SEM
Excerpt: For domain swapping between GALR2 and GALR3, individual cDNA fragments of interest were amplified by polymerase chain reaction (PCR) with Pfu polymerase (ELPIS Biotech, Daejeon, Korea) and two specific primers, one corresponding to the 5' or 3' end of the GALR2 or GALR3 cDNA and the other to the region of overlap between the two receptors. The two resulting fragments, one from GALR2 and the other from GALR3, were subjected to a second round of PCR to generate the chimeric cDNAs. To construct single, double-, triple-, pentuple-, hextuple-, and septuple-mutant receptors, amino acids of GALR3 were substituted for the amino acids at the corresponding positions in GALR2 using PCR-based site-directed mutagenesis. […]
For luciferase assays, HEK293 Gqi cells were seeded on 48-well plates at a density of 2.5 × 10^4 cells/well one day before transfection. […] The luciferase activity in 50 μl cell extract was determined using a luciferase assay system according to the standard protocol for the Synergy 2 Multi-Mode Microplate Reader (BioTek, Winooski, VT, USA).
Data analysis was performed by non-linear regression with a sigmoidal dose-response curve. The concentrations of agonists that induced half-maximal stimulation (EC50) were calculated using the GraphPad PRISM5 software (GraphPad software, Inc., San Diego, CA). […]

## CSCC[C@H](NC(=O)[C@H](C)NC(=O)[C@H](CCC(N)=O)NC(=O)[C@@H]1CCCN1C(=O)[C@@H](NC(=O)[C@H](Cc1c[nH]c2ccccc12)NC(=O)[C@@H](N)CC(N)=O)[C@@H](C)O)C(=O)N[C@@H](CC(C)C)C(=O)N[C@@H](Cc1ccc(O)cc1)C(=O)N[C@@H](CC(C)C)C(=O)N[C@@H](CCCCN)C(=O)NCC(=O)N[C@@H](C)C(=O)N[C@@H](CCC(N)=O)C(N)=O [SPX, reference compound]
  EC50: 4.07 ± 1.12 nM
